Test results: patent US20170247409A1, “ABIETANE-TYPE DITERPENOIDS” (UNIVERSITY OF HELSINKI, priority 2014, published 2017)
Converted amounts (≈) assume the structure as drawn. Like-named read-outs stand apart in the source and are kept apart here.

Assays:
[1] = system: S. aureus ATCC 25923 biofilms; test: Anti-biofilm viability assay with redox dye, pre- and post-exposure, S. aureus ATCC 25923 biofilms; format: cell-based, Staphylococcus aureus; settings: for IC50 / inhibition at 400 µM: S. aureus ATCC 25923; for inhibition at 400 µM: ATCC25923; for reduction of the viable biofilm cells: time-course on existing biofilms, within the first hour (FIG. 1)
single-cell bacteria = test: Antibacterial activity (MIC) against single-cell (planktonic) bacteria; format: cell-based; settings: Staphylococcus aureus, in the absence of biofilms, strain not stated
Description: We selected six of the active compounds in the post-exposure assays namely, compounds 20, 21, 22, 25, 31 and 32 for the follow-up studies. […] In this mode of the assay, the interaction of the compounds occurs initially with single-cell bacteria (that is, a planktonic solution) before biofilms are formed. Therefore, we tested additionally if the compounds could exert antibacterial activity against single-cell bacteria, in the absence of biofilms. Based solely on conventional MIC and MBC values, antibacterial activities against single-cell bacteria were also high for the derivatives. […] The antibacterial activity order 22>21>25>31>20>32 correlated very well with the measured activity in preventing biofilm formation.

S. aureus Newman = test: Anti-biofilm potency against S. aureus Newman biofilms; format: cell-based, Staphylococcus aureus; settings: Staphylococcus aureus, S. aureus Newman
Description: In fact, only 2-3 fold-higher concentrations of the compounds were needed to kill existing biofilms, in comparison to inhibiting bacterial colonization. […] Anti-biofilm potencies were all in the micromolar range and they were particularly significant for compound 22. […] The activity was also confirmed against S. aureus Newman strain. Potency values calculated for the S. aureus Newman (Table 3) were very similar to the values registered for S. aureus ATCC 25923.

E. coli XL1 blue = test: Anti-biofilm activity against E. coli XL1 blue biofilms; format: cell-based, Escherichia coli; settings: tested at IC50 conc. measured against S. aureus ATCC 25923
Procedure: (§1) Four of the compounds were also tested against gram-negative E. coli biofilms as well as other Staphylococcal strains, at the corresponding IC50 values measured against S. aureus ATCC 25923 (Table 4). […] Nonetheless, all the compounds presented below were found active against S. epidermidis (ATCC 12228 and ATCC 35984) strains (Table 3).

[2] = system: S. epidermidis ATCC 12228; test: Anti-biofilm activity against S. epidermidis ATCC 12228; format: cell-based, Staphylococcus epidermidis; settings: tested at IC50 conc. measured against S. aureus ATCC 25923
Procedure: as §1

[3] = system: S. epidermidis ATCC 35984; test: Anti-biofilm activity against S. epidermidis ATCC 35984; format: cell-based, Staphylococcus epidermidis; settings: tested at IC50 conc. measured against S. aureus ATCC 25923
Procedure: as §1

[4] = system: S. aureus ATCC 25923 biofilms; test: Viable plate counts and Log Reduction of S. aureus ATCC 25923 biofilms; format: cell-based, Staphylococcus aureus; settings: 400 μM, viable plate counts
Procedure: The viability of S. aureus (ATCC 25923) biofilms left upon exposure to compounds 20, 21, 22 and 25 was determined using viable plate counts and calculating the Log Reduction (Log R) value. This procedure involves scrapping the biofilms off the substrate, disaggregating them by sonication and plating the resulting suspension in agar. The method is highly laborious but it is the gold standard for the quantification of anti-biofilm efficacy (Pitts et al. 2003). […] Of note, a log R value of 2 represents a reduction of 99% of the viable cells in the biofilms, and typically, a log R of 3 is considered a relevant indicator of the compound efficacy as an anti-biofilm agent.

[5] = system: S. aureus ATCC 25923 biofilms; test: ATP release from biofilms, BacTiter-Glo bioluminescent assay; format: cell-based, Staphylococcus aureus; settings: 100 μM; 1 h exposure (FIG. 2A)
Description: (§2) A: quantification of ATP release from the S. aureus ATCC 25923 biofilms using the BacTiter-Glo bioluminescent assay. B: quantification of membrane depolarization in treated biofilms by the potential-sensitive DiABC(4)3 probe; this probe can only enter depolarized cells, where it experienced an enhanced fluorescence signal upon binding to intracellular proteins. For statistical comparisons between the treated and untreated samples, an unpaired t-test with Welch's correction was used, using GraphPad Prism (v 5.0 for Mac OS X).
(§3) ATP release from the biofilms after 1 h exposure to compounds 22 and 25 at 100 μM was quantified on the culture media, using the BacTiter-Glo bioluminescent assay. […] ATP release can be often associated to membrane depolarization events. Here, such events were followed by the increase in fluorescence emission of the DiBAC4(3) probe, as in Okuda et al. (2013).

[6] = system: S. aureus ATCC 25923 biofilms; test: Membrane depolarization in biofilms, DiBAC4(3) probe; format: cell-based, Staphylococcus aureus; settings: 1 h exposure to the biofilms (FIG. 2B)
Description: as §2, §3

HL cells [7] = test: Tolerability of mammalian cells, resazurin viability assay; format: cell-based, human; settings: 24 hours exposure, HL cells
Procedure: Viability values were measured in acute conditions (24 hours exposure) using the resazurin assay as in Karlsson et al, 2012 (Eur J Pharm Sci. 2012 Aug 30;47(1):190-205). […] The least tolerated molecule was 25, as only 23% (±5.9) of cells remained viable upon exposure to 100 μM. However, concentrations up to 30 μM caused no cytotoxicity (90.2% of viable cells, ±0.5).

HL cells [8] = test: Biocompatibility index (LC50 in HL cells / concentration causing 3-log reduction of planktonic bacteria); format: cell-based, human; settings: ratio LC50 (HL cells) / concentration causing 3-log reduction in planktonic bacterial burden
Procedure: Additionally, the biocompatibility index (BI) was calculated for compound 22, to assess the overall impact of its antimicrobial activity, using an adaptation of the equation described for antiseptics by Muller and Kramer, 2008. BI, as originally defined by these authors, is a dimensionless parameter resulting from the ratio of the in vitro cytotoxicity values (in this case, half-lethal concentrations, LC50) to the concentration of the compound causing a 3-log reduction in the viable counts of suspended bacteria. Compounds with BI<1 are deemed as less promising, due to their potential toxic effects. Thus BI is a very useful tool for the quick exclusion of undesired toxic scaffolds or weak hits in early stage of development of anti-biofilm molecules. For the determination of the BI, acute cytotoxicity of compound 22 was measured in the same cell line described earlier (HL cells), using the resazurin assay as in Karlsson et al, 2012. The ratio of the half lethal concentration (LC50) and the concentration causing 3-log reduction in the planktonic bacterial burden was calculated (both expressed in […]), as below:
The BI value of compound 22 was clearly higher than 1, which is indicative of an adequate combination of an effective anti-biofilm activity with a low cytotoxicity. It is thus expected that toxic effects can be minimized in the host organisms exposed to compound 22.

[9] = Staphylococcus aureus, ATCC25923, 50% inhibition of biofilm viability, read-out: Potency, IC50 Prior-to-biofilm formation
[10] = Staphylococcus aureus, ATCC25923, 50% inhibition of biofilm viability, value in parentheses, read-out: Potency, IC50 Prior-to-biofilm formation
[11] = Staphylococcus aureus, ATCC25923, 24 h, measured 24 hours after adding to existing biofilms, value in parentheses, read-out: Potency, IC50 Post-biofilm formation
[12] = Staphylococcus aureus, post-exposure, read-out: % Inhibition 400 μM POST
[13] = Staphylococcus aureus, pre-exposure, read-out: % Inhibition 400 μM PRE
[14] = read-out: Potency, IC50 Post-biofilm formation
[15] = read-out: Potency, IC50 Prior-to-biofilm formation
[16] = value in parentheses, read-out: Potency, IC50 Post-biofilm formation
[17] = value in parentheses, read-out: Potency, IC50 Prior-to-biofilm formation

Compound | IC50 [1, 9] | IC50 [1, 10] | IC50 [1, 11] | inhibition at 400 µM [1, 12] | inhibition at 400 µM [1, 13] | reduction of the viable biofilm cells [1] | MIC (single-cell bacteria) | IC50 (S. aureus Newman; [14]) | IC50 (S. aureus Newman; [15]) | IC50 (S. aureus Newman; [16]) | IC50 (S. aureus Newman; [17]) | Inhibition percentage (±SD) Post-biofilm formation (E. coli XL1 blue) | Inhibition percentage (±SD) Prior-to-biofilm formation (E. coli XL1 blue) | Inhibition percentage (±SD) Post-biofilm formation [2] | Inhibition percentage (±SD) Prior-to-biofilm formation [2] | Inhibition percentage (±SD) Post-biofilm formation [3] | Inhibition percentage (±SD) Prior-to-biofilm formation [3] | Log Reduction (average ±SD) [4] | ATP release from the biofilms [5] | membrane depolarization [6] | also measured
CC(C)c1ccc2c(c1)CC[C@H]1[C@](C)(C(=O)N[C@H](Cc3c[nH]c4ccccc34)C(=O)O)CCC[C@]21C [Compound 25, N-(Abiet-8,11,13-trien-18-oyl) D-tryptophan] | 33.2 µM | 16.2 mg/L | 41.9 mg/L | 102% | 102% | ~50% | 29.3 mg/L (≈ 60.2 µM) | 71.7 µM | 20.9 µM | 34.9 mg/L | 10.2 mg/L | 6.7 (±7.2) % | 8.7 (±5.6) % | 48.8 (±10.3) % | 70.3 (±5.6) % | 38.0 (±9.3) % | 66.9 (±0.9) % | 6.2 (±0.4) | highly significant ATP leakage | caused membrane depolarization | IC50 ([1]; Staphylococcus aureus, ATCC25923, 24 h, measured 24 hours after adding to existing biofilms, read-out: Potency, IC50 Post-biofilm formation): < 100 µM; IC50 ([1]; measured 24 hours after adding to existing biofilms, read-out: Potency, IC50 Post-biofilm formation): 86.1 µM; viable cells (HL cells [7]; 100 μM): 23%; viable cells (HL cells [7]; concentrations up to 30 μM): 90.2%
CC(C)c1ccc2c(c1)CC[C@H]1[C@](C)(C(=O)N[C@@H](CC3CCCCC3)C(=O)O)CCC[C@]21C [Compound 22, N-(Abiet-8,11,13-trien-18-oyl) Cyclohexyl-L-alanine] | 9.4 µM | 4.2 mg/L | 12.7 mg/L | 99.6% | 100% | ~50% | 6.8 mg/L (≈ 15 µM) | 48.2 µM | 7.9 µM | 21.9 mg/L | 3.6 mg/L | 14.2 (±13.1) % | 5.2 (±11.3) % | 4.4 (±5.8) % | 42.3 (±9.5) % | 1.9 (±5.7) % | 48.8 (±4.8) % | 2.3 (±0.1) | highly significant ATP leakage | caused membrane depolarization | biocompatibility index (BI) (HL cells [8]): higher than 1
